{"source": "patent US20200261534A1", "about": "“NEW TREATMENTS OF MULTIPLE MYELOMA” (priority 2017, published 2020)", "key": {"[1]": {"test_system": "HL-60, promyeloblast (acute myelocytic leukemia, AML)", "assay": "MTT viability assay, HL-60", "format": "cell-based", "experimental": "(§1) HL-60, promyeloblast (acute myelocytic leukemia, AML), ECACC: 98070106 […] During the amplification step and the assays adherent cells were rinsed with DPBS (Dulbecco's Phosphate Buffered Saline, Sigma D1283) three times and afterward treated for 5 minutes with trypsin ([…]) (Gibco-BRL, 15400054) in solution of DPBS at 37° C., and, once detached, transferred in the culturing medium. No-adherent cells were centrifuged and transferred in the culturing medium. Cells were counted in a Neubauer chamber after labelling with Tripan-Blue. […] Cells were seeded at a density of 10000 cells/well in 100 μl of medium in 96 well plates. […] Controls are the untreated cells. Each experiment was performed in triplicate. Cells were incubated with the compounds at the indicated concentrations during 24-72 h in incubator under CO2 atmosphere at 37° C. […] Stock solution of MTT (475989 Calbiochem) was 5 mg/ml in PBS. 1×.10 μl/well of MTT solution were added and the plate was incubated for 3-4 hr. […] Plates were incubated for 16 h at room temperature under orbital shaking. Absorbance at 570 nm was finally measured. […] The dose/response curve was fitted through the sigmoidal equation dose-response (variable slope) and the IC50 values were calculated as follow: Y=Bottom+(Top−Bottom)/(1+10^{[(LogIC50−X)*HillSlope]},"}, "[2]": {"test_system": "RAMOS, B lymphocyte (Burkitt's Lymphoma)", "assay": "MTT viability assay, RAMOS", "format": "cell-based", "experimental": "as §1, with “RAMOS, B lymphocyte (Burkitt's Lymphoma), ATCC: CRL-1596” for “HL-60, promyeloblast (acute myelocytic leukemia, AML), ECACC: 98070106”"}, "[3]": {"conditions": "HL-60, same protocol as Example 2, Table 6, read-out: Compound (IC50)"}, "[4]": {"conditions": "Ramos, same protocol as Example 2, Table 6, read-out: Compound (IC50)"}}, "note": "Like-named read-outs stand apart in the source and are kept apart here. Starred links: 1 amine or outer side, 2 acyl side, 3 side chain; linkers in the order of their positions; H or OH if unused. Positions of bridges follow the written chain, without caps; N, C: chain ends. Non-standard residues stand in square brackets, D forms with d. Residues, ends and D or L forms follow the SMILES beside them. ξ: configuration not given here. ξαMeNle(6-ylidene) = CC(CCCC=[*:3])(N[*:1])C(=O)[*:2]; X1 = CC(CCCCCCC=[*:3])(N[*:1])C(=O)[*:2]"}
{"smiles": "CCc1ccc(/C=C2/SC(=S)NC2=O)cc1", "note": "[10058-F4, reference compound]", "values": [{"measurement": "IC50", "setting": "[1]; HL-60, MTT, incubation 24-72 h, Table 3, read-out: IC50 values", "result": "54 ± 2", "unit": "µM"}, {"measurement": "IC50", "setting": "[2]; Ramos, MTT, incubation 24-72 h, Table 3, read-out: IC50 values", "result": "~57", "unit": "µM"}]}
{"smiles": "CC[C@H](C)[C@H](NC(=O)[C@@H](NC(=O)[C@@H](NC(=O)[C@H](CCCCN)NC(=O)[C@@H]1CCCN1C(=O)[C@H](C)N)C(C)C)C(C)C)C(=O)NC1(C)CCCCCCC=CCCCC(C)(C(=O)N[C@@H](CC(C)C)C(=O)N[C@@H](CO)C(=O)O)NC(=O)[C@H](Cc2ccc(O)cc2)NC(=O)[C@H](C)NC(=O)[C@H]([C@@H](C)O)NC(=O)[C@H](C)NC(=O)[C@H](CCCCN)NC(=O)[C@H](CCCCN)NC1=O", "note": "(some centres unmarked) [IDP-S17, APKVVIXKKATAYXLS] (H-APKVVI[X1]KKATAY[ξαMeNle(6-ylidene)]LS-OH; staple 7-14; N-terminus and C-terminus assumed)", "values": [{"measurement": "IC50", "setting": "[1]", "result": "> 100", "unit": "µM"}, {"measurement": "IC50", "setting": "[2]", "result": "> 100", "unit": "µM"}]}
{"smiles": "CC[C@H](C)[C@@H]1NC(=O)[C@H](Cc2ccc(O)cc2)NC(=O)[C@H](C)NC(=O)[C@H]([C@@H](C)O)NC(=O)[C@H](C)NC(=O)[C@H](CCCCN)NC(=O)C(C)(NC(=O)[C@H](CC(C)C)NC(=O)[C@@H](NC(=O)[C@@H](NC(=O)[C@@H](NC(=O)[C@H](CCCCN)NC(=O)[C@@H]2CCCN2C(=O)[C@H](C)N)C(C)C)C(C)C)[C@@H](C)CC)CCCCCCC=CCCCC(C)(C(=O)N[C@@H](CO)C(=O)O)NC1=O", "note": "(some centres unmarked) [IDP-S18, APKVVILXKATAYIXS] (H-APKVVIL[X1]KATAYI[ξαMeNle(6-ylidene)]S-OH; staple 8-15; N-terminus and C-terminus assumed)", "values": [{"measurement": "IC50", "setting": "[1]", "result": "> 100", "unit": "µM"}, {"measurement": "IC50", "setting": "[2]", "result": "> 100", "unit": "µM"}]}
{"smiles": "CC[C@H](C)[C@H](NC(=O)[C@H](Cc1ccc(O)cc1)NC(=O)[C@H](C)NC(=O)[C@@H](NC(=O)[C@H](C)NC(=O)C1(C)CCCC=CCCCCCCC(C)(NC(=O)[C@H](C)N)C(=O)N[C@@H](CCCCN)C(=O)N[C@@H](C(C)C)C(=O)N[C@@H](C(C)C)C(=O)N[C@@H]([C@@H](C)CC)C(=O)N[C@@H](CC(C)C)C(=O)N[C@@H](CCCCN)C(=O)N1)[C@@H](C)O)C(=O)N[C@@H](CC(C)C)C(=O)N[C@@H](CO)C(=O)O", "note": "(some centres unmarked) [IDP-S19, AXKVVILKXATAYILS] (H-A[X1]KVVILK[ξαMeNle(6-ylidene)]ATAYILS-OH; staple 2-9)", "values": [{"measurement": "IC50", "setting": "[1]; [3]", "result": "> 100", "unit": "µM"}, {"measurement": "IC50", "setting": "[2]; [4]", "result": "> 100", "unit": "µM"}]}
{"smiles": "CC[C@H](C)[C@H](NC(=O)[C@H](Cc1ccc(O)cc1)NC(=O)C1(C)CCCC=CCCCCCCC(C)(NC(=O)[C@@H](NC(=O)[C@H](CCCCN)NC(=O)[C@@H]2CCCN2C(=O)[C@H](C)N)C(C)C)C(=O)N[C@@H]([C@@H](C)CC)C(=O)N[C@@H](CC(C)C)C(=O)N[C@@H](CCCCN)C(=O)N[C@@H](CCCCN)C(=O)N[C@@H](C)C(=O)N[C@@H]([C@@H](C)O)C(=O)N1)C(=O)N[C@@H](CC(C)C)C(=O)N[C@@H](CO)C(=O)O", "note": "(some centres unmarked) [IDP-S21, APKVXILKKATXYILS] (H-APKV[X1]ILKKAT[ξαMeNle(6-ylidene)]YILS-OH; staple 5-12)", "values": [{"measurement": "IC50", "setting": "[1]; [3]", "result": "> 100", "unit": "µM"}, {"measurement": "IC50", "setting": "[2]; [4]", "result": "> 100", "unit": "µM"}]}
{"smiles": "CC[C@H](C)[C@H](NC(=O)C1(C)CCCC=CCCCCCCC(C)(NC(=O)[C@@H](NC(=O)[C@@H](NC(=O)[C@H](CCCCN)NC(=O)[C@@H]2CCCN2C(=O)[C@H](C)N)C(C)C)C(C)C)C(=O)N[C@@H](CC(C)C)C(=O)N[C@@H](CCCCN)C(=O)N[C@@H](CCCCN)C(=O)N[C@@H](C)C(=O)N[C@@H]([C@@H](C)O)C(=O)N[C@@H](C)C(=O)N1)C(=O)N[C@@H](CC(C)C)C(=O)N[C@@H](CO)C(=O)O", "note": "(some centres unmarked) [IDP-S22, APKVVXLKKATAXILS] (H-APKVV[X1]LKKATA[ξαMeNle(6-ylidene)]ILS-OH; staple 6-13; N-terminus and C-terminus assumed)", "values": [{"measurement": "IC50", "setting": "[1]", "result": "> 100", "unit": "µM"}, {"measurement": "IC50", "setting": "[2]", "result": "> 100", "unit": "µM"}]}
{"smiles": "CC[C@H](C)[C@@H]1NC(=O)[C@H](Cc2ccc(O)cc2)NC(=O)[C@H](C)NC(=O)[C@H]([C@@H](C)O)NC(=O)[C@H](C)NC(=O)C(C)(NC(=O)[C@H](CCCCN)NC(=O)[C@H](CC(C)C)NC(=O)[C@@H](NC(=O)[C@@H](NC(=O)[C@@H](NC(=O)[C@H](CCCCN)NC(=O)[C@@H]2CCCN2C(=O)[C@H](C)N)C(C)C)C(C)C)[C@@H](C)CC)CCCCCCC=CCCCC(C)(C(=O)N[C@H](C(=O)O)C(C)C)NC(=O)[C@H](CC(C)C)NC1=O", "note": "(some centres unmarked) [IDP-S23, APKVVILKXATAYILXV] (H-APKVVILK[X1]ATAYIL[ξαMeNle(6-ylidene)]V-OH; staple 9-16)", "values": [{"measurement": "IC50", "setting": "[1]; [3]", "result": "> 100", "unit": "µM"}, {"measurement": "IC50", "setting": "[2]; [4]", "result": "> 100", "unit": "µM"}]}
